System: Mycobacterium tuberculosis
Experiment: Antimycobacterial activity against Mycobacterium tuberculosis at 12.5 ug/ml
Type: functional
Conditions: read-out: GI

SMILES | inhibition of growth at 12.5 µg/mL [%]
C=CCNC(=O)C(CCCC)N(CC=C)C(=O)c1cccnc1 (stereo unspecified) | 100
C=CCNC(=O)C1(N(CCCN2CCOCC2)C(=O)c2cccnc2)CCCc2cc(OC)ccc21 (stereo unspecified) | 64
C=CCNC(=O)C1(N(CC(C)(C)C)C(=O)c2cccnc2)CCCCC1 | 99
C=CCNC(=O)C(CCCC)N(CC(C)(C)C)C(=O)c1cccnc1 (stereo unspecified) | 102
C=CCNC(=O)C1(N(C(=O)c2cccnc2)C2CCCCC2)CCCCC1 | 76
C=CCNC(=O)C(CCCCC)N(C(=O)c1cccnc1)C1CC1 (stereo unspecified) | 90
C=CCNC(=O)C(C(C)C)N(C(=O)c1cccnc1)C1CCCCC1 (stereo unspecified) | 62
C=CCNC(=O)C(C(C)C)N(C(=O)c1cccnc1)C(C)c1ccccc1 (stereo unspecified) | 77
C=CCNC(=O)C1(N(CCCn2ccnc2)C(=O)c2cccnc2)CCCc2cc(OC)ccc21 (stereo unspecified) | 69
C=CCNC(=O)C1(N(CC=C)C(=O)c2cccnc2)CCN(Cc2ccccc2)CC1 | 94
C=CCNC(=O)C(C=C)(CC)N(C(=O)c1cccnc1)C(C)c1ccccc1 (stereo unspecified) | 73
C=CCNC(=O)C(C=C)(CC)N(CC=C)C(=O)c1cccnc1 (stereo unspecified) | 39
C=CCNC(=O)C1(N(CCCN2CCOCC2)C(=O)c2cccnc2)CCN(Cc2ccccc2)CC1 | 33
C=CCNC(=O)C(C)(c1ccccc1)N(CC=C)C(=O)c1cccnc1 (stereo unspecified) | 69
C=CCNC(=O)C(N(CC(C)(C)C)C(=O)c1cccnc1)C(Cl)(Cl)Cl (stereo unspecified) | 74
C=CCNC(=O)C(C)(C(C)C)N(C(=O)c1cccnc1)C(C)c1ccccc1 (stereo unspecified) | 83
C=CCNC(=O)C(C=C)(CC)N(CC(C)(C)C)C(=O)c1cccnc1 (stereo unspecified) | 60
C=CCNC(=O)C(C)(C)N(C(=O)c1cccnc1)C1CC1 | 64
C=CCNC(=O)C(C(C)C)N(CCCn1ccnc1)C(=O)c1cccnc1 (stereo unspecified) | 43
C=CCNC(=O)C(CCCCC)N(C(=O)c1cccnc1)C1CCCCC1 (stereo unspecified) | 100
C=CCNC(=O)C1(N(CCCn2ccnc2)C(=O)c2cccnc2)CCCCC1 | 43
C=CCNC(=O)C(C)(C(C)C)N(CCCN1CCOCC1)C(=O)c1cccnc1 (stereo unspecified) | 64
C=CCNC(=O)C(C=C)(CC)N(C(=O)c1cccnc1)C1CC1 (stereo unspecified) | 50
C=CCNC(=O)C(C(C)C)N(CC(C)(C)C)C(=O)c1cccnc1 (stereo unspecified) | 76

SMILES | inhibition of growth at 12.5 µg/mL [%]
C=CCNC(=O)C(C)(C(C)C)N(CCCn1ccnc1)C(=O)c1cccnc1 (stereo unspecified) | 54
C=CCNC(=O)C(N(CCCn1ccnc1)C(=O)c1cccnc1)C(F)(F)F (stereo unspecified) | 71
C=CCNC(=O)C(N(Cc1ccncc1)C(=O)c1cccnc1)C(Cl)(Cl)Cl (stereo unspecified) | 49
C=CCNC(=O)C(CCCCC)N(CC=C)C(=O)c1cccnc1 (stereo unspecified) | 11
C=CCNC(=O)C(CCCCC)N(CC(C)(C)C)C(=O)c1cccnc1 (stereo unspecified) | 73
C=CCNC(=O)C(C)(C)N(Cc1ccncc1)C(=O)c1cccnc1 | 51
C=CCNC(=O)C(C=C)(CC)N(C(=O)c1cccnc1)C1CCCCC1 (stereo unspecified) | 84
C=CCNC(=O)C(C)(c1ccccc1)N(CCCn1ccnc1)C(=O)c1cccnc1 (stereo unspecified) | 71
C=CCNC(=O)C(N(C(=O)c1cccnc1)C(C)c1ccccc1)C(F)(F)F (stereo unspecified) | 90
C=CCNC(=O)C(N(C(=O)c1cccnc1)C1CCCCC1)C(F)(F)F (stereo unspecified) | 60
C=CCNC(=O)C(C)(c1ccccc1)N(C(=O)c1cccnc1)C(C)c1ccccc1 (stereo unspecified) | 83
C=CCNC(=O)C(N(CC=C)C(=O)c1cccnc1)C(Cl)(Cl)Cl (stereo unspecified) | 6
C=CCNC(=O)C(C)(C)N(C(=O)c1cccnc1)C1CCCCC1 | 92
C=CCNC(=O)C(C)(C)N(CC(C)(C)C)C(=O)c1cccnc1 | 71
C=CCNC(=O)C1(N(Cc2ccncc2)C(=O)c2cccnc2)CCCc2cc(OC)ccc21 (stereo unspecified) | 63
C=CCNC(=O)C(C(C)C)N(Cc1ccncc1)C(=O)c1cccnc1 (stereo unspecified) | 50
C=CCNC(=O)C(C)(C(C)C)N(Cc1ccncc1)C(=O)c1cccnc1 (stereo unspecified) | 52
C=CCNC(=O)C(N(C(=O)c1cccnc1)C(C)c1ccccc1)C(Cl)(Cl)Cl (stereo unspecified) | 82
C=CCNC(=O)C(C)(c1ccccc1)N(CC(C)(C)C)C(=O)c1cccnc1 (stereo unspecified) | 67
C=CCNC(=O)C(N(CCCn1ccnc1)C(=O)c1cccnc1)C(Cl)(Cl)Cl (stereo unspecified) | 61
C=CCNC(=O)C(C)(C(C)C)N(C(=O)c1cccnc1)C1CCCCC1 (stereo unspecified) | 95
C=CCNC(=O)C(CCCC)N(CCCN1CCOCC1)C(=O)c1cccnc1 (stereo unspecified) | 69
C=CCNC(=O)C(N(C(=O)c1cccnc1)C1CCCCC1)C(Cl)(Cl)Cl (stereo unspecified) | 74
C=CCNC(=O)C(CCCC)N(C(=O)c1cccnc1)C1CC1 (stereo unspecified) | 96

SMILES | inhibition of growth at 12.5 µg/mL [%]
C=CCNC(=O)C(C)(c1ccccc1)N(CCCN1CCOCC1)C(=O)c1cccnc1 (stereo unspecified) | 72
C=CCNC(=O)C(C(C)C)N(C(=O)c1cccnc1)C1CC1 (stereo unspecified) | 57
C=CCNC(=O)C(CCCC)N(C(=O)c1cccnc1)C1CCCCC1 (stereo unspecified) | 100
C=CCNC(=O)C(N(Cc1ccncc1)C(=O)c1cccnc1)C(F)(F)F (stereo unspecified) | 58
C=CCNC(=O)C1(N(Cc2ccncc2)C(=O)c2cccnc2)CCCCC1 | 87
C=CCNC(=O)C1(N(C(=O)c2cccnc2)C2CC2)CCN(Cc2ccccc2)CC1 | 43
C=CCNC(=O)C1(N(Cc2ccncc2)C(=O)c2cccnc2)CCN(Cc2ccccc2)CC1 | 64
C=CCNC(=O)C(N(C(=O)c1cccnc1)C1CC1)C(Cl)(Cl)Cl (stereo unspecified) | 9
C=CCNC(=O)C(CCCCC)N(CCCn1ccnc1)C(=O)c1cccnc1 (stereo unspecified) | 82
C=CCNC(=O)C(C)(C)N(CC=C)C(=O)c1cccnc1 | 76
C=CCNC(=O)C1(N(CC(C)(C)C)C(=O)c2cccnc2)CCCc2cc(OC)ccc21 (stereo unspecified) | 72
C=CCNC(=O)C(CCCCC)N(C(=O)c1cccnc1)C(C)c1ccccc1 (stereo unspecified) | 95
C=CCNC(=O)C(C)(C)N(CCCN1CCOCC1)C(=O)c1cccnc1 | 70
C=CCNC(=O)C(N(CCCN1CCOCC1)C(=O)c1cccnc1)C(Cl)(Cl)Cl (stereo unspecified) | 78
C=CCNC(=O)C1(N(CC=C)C(=O)c2cccnc2)CCCCC1 | 80
C=CCNC(=O)C(CCCC)N(Cc1ccncc1)C(=O)c1cccnc1 (stereo unspecified) | 96
C=CCNC(=O)C(N(CC=C)C(=O)c1cccnc1)C(F)(F)F (stereo unspecified) | 6
C=CCNC(=O)C1(N(CC=C)C(=O)c2cccnc2)CCCc2cc(OC)ccc21 (stereo unspecified) | 80
C=CCNC(=O)C1(N(CCCN2CCOCC2)C(=O)c2cccnc2)CCCCC1 | 49
C=CCNC(=O)C(C=C)(CC)N(CCCN1CCOCC1)C(=O)c1cccnc1 (stereo unspecified) | 31
C=CCNC(=O)C(N(C(=O)c1cccnc1)C1CC1)C(F)(F)F (stereo unspecified) | 74
C=CCNC(=O)C1(N(C(=O)c2cccnc2)C2CCCCC2)CCCc2cc(OC)ccc21 (stereo unspecified) | 72
C=CCNC(=O)C(CCCC)N(CCCn1ccnc1)C(=O)c1cccnc1 (stereo unspecified) | 89
C=CCNC(=O)C1(N(CC(C)(C)C)C(=O)c2cccnc2)CCN(Cc2ccccc2)CC1 | 28

SMILES | inhibition of growth at 12.5 µg/mL [%]
C=CCNC(=O)C1(N(C(=O)c2cccnc2)C2CC2)CCCc2cc(OC)ccc21 (stereo unspecified) | 69
C=CCNC(=O)C(N(CCCN1CCOCC1)C(=O)c1cccnc1)C(F)(F)F (stereo unspecified) | 72
C=CCNC(=O)C(C)(c1ccccc1)N(C(=O)c1cccnc1)C1CCCCC1 (stereo unspecified) | 57
C=CCNC(=O)C1(N(C(=O)c2cccnc2)C2CCCCC2)CCN(Cc2ccccc2)CC1 | 101
C=CCNC(=O)C(C)(C(C)C)N(CC(C)(C)C)C(=O)c1cccnc1 (stereo unspecified) | 62
C=CCNC(=O)C(CCCC)N(C(=O)c1cccnc1)C(C)c1ccccc1 (stereo unspecified) | 100
C=CCNC(=O)C(C)(C(C)C)N(CC=C)C(=O)c1cccnc1 (stereo unspecified) | 69
C=CCNC(=O)C(C)(c1ccccc1)N(C(=O)c1cccnc1)C1CC1 (stereo unspecified) | 72
C=CCNC(=O)C1(N(C(=O)c2cccnc2)C(C)c2ccccc2)CCN(Cc2ccccc2)CC1 (stereo unspecified) | 54
C=CCNC(=O)C(C)(C)N(CCCn1ccnc1)C(=O)c1cccnc1 | 57
C=CCNC(=O)C1(N(C(=O)c2cccnc2)C2CC2)CCCCC1 | 71
C=CCNC(=O)C(C)(C(C)C)N(C(=O)c1cccnc1)C1CC1 (stereo unspecified) | 67
C=CCNC(=O)C(C(C)C)N(CCCN1CCOCC1)C(=O)c1cccnc1 (stereo unspecified) | 33
C=CCNC(=O)C(CCCCC)N(Cc1ccncc1)C(=O)c1cccnc1 (stereo unspecified) | 89
C=CCNC(=O)C(C)(c1ccccc1)N(Cc1ccncc1)C(=O)c1cccnc1 (stereo unspecified) | 68
C=CCNC(=O)C(C)(C)N(C(=O)c1cccnc1)C(C)c1ccccc1 (stereo unspecified) | 83
C=CCNC(=O)C(C=C)(CC)N(Cc1ccncc1)C(=O)c1cccnc1 (stereo unspecified) | 23
C=CCNC(=O)C(C=C)(CC)N(CCCn1ccnc1)C(=O)c1cccnc1 (stereo unspecified) | 23
C=CCNC(=O)C(CCCCC)N(CCCN1CCOCC1)C(=O)c1cccnc1 (stereo unspecified) | 74
C=CCNC(=O)C1(N(C(=O)c2cccnc2)C(C)c2ccccc2)CCCc2cc(OC)ccc21 (stereo unspecified) | 82
C=CCNC(=O)C(N(CC(C)(C)C)C(=O)c1cccnc1)C(F)(F)F (stereo unspecified) | 77
C=CCNC(=O)C(C(C)C)N(CC=C)C(=O)c1cccnc1 (stereo unspecified) | 6
C=CCNC(=O)C1(N(C(=O)c2cccnc2)C(C)c2ccccc2)CCCCC1 (stereo unspecified) | 74
C=CCNC(=O)C1(N(CCCn2ccnc2)C(=O)c2cccnc2)CCN(Cc2ccccc2)CC1 | 46

— ChEMBL document CHEMBL1139796, “Novel anti-tuberculosis agents from MCR libraries” (Bioorg Med Chem Lett, 2007)
